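GI50 is the concentration that inhibits growth by half. At the TGI there is no net growth.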
Assays:
Test in all cases: inhibition of tumour cell growth, NCI panel, 384-well format
NCI-H23 lung = tested on: NCI-H23 lung
PC-3 prostate = tested on: PC-3 prostate
TK-10 renal = tested on: TK-10 renal
NCI/ADR-RES ovarian = tested on: NCI/ADR-RES ovarian
KM12 colon = tested on: KM12 colon
RXF 393 renal = tested on: RXF 393 renal
HCC-2998 colon = tested on: HCC-2998 colon
EKVX NSCLC = tested on: EKVX NSCLC
SF-539 CNS = tested on: SF-539 CNS
BT-549 breast = tested on: BT-549 breast
UACC-257 melanoma = tested on: UACC-257 melanoma
A549 NSCLC = tested on: A549 NSCLC
SW-620 colon = tested on: SW-620 colon
NCI-H226 lung = tested on: NCI-H226 lung
SK-MEL-2 melanoma = tested on: SK-MEL-2 melanoma
T-47D breast = tested on: T-47D breast
OVCAR-3 ovarian = tested on: OVCAR-3 ovarian
OVCAR-5 ovarian = tested on: OVCAR-5 ovarian
SNB-75 CNS = tested on: SNB-75 CNS
HT29 colon = tested on: HT29 colon
HL-60(TB) leukemia = tested on: HL-60(TB) leukemia
MDA-MB-435 melanoma = tested on: MDA-MB-435 melanoma
786-0 renal = tested on: 786-0 renal
CCRF-CEM leukemia = tested on: CCRF-CEM leukemia
NCI-H322M lung = tested on: NCI-H322M lung
IGROV1 ovarian = tested on: IGROV1 ovarian
SNB-19 CNS = tested on: SNB-19 CNS
SF-295 CNS = tested on: SF-295 CNS
COLO 205 colon = tested on: COLO 205 colon
OVCAR-8 ovarian = tested on: OVCAR-8 ovarian
MOLT-4 leukemia = tested on: MOLT-4 leukemia
DU-145 prostate = tested on: DU-145 prostate
HCT-15 colon = tested on: HCT-15 colon
RPMI-8226 leukemia = tested on: RPMI-8226 leukemia
HS 578T breast = tested on: HS 578T breast
SK-OV-3 ovarian = tested on: SK-OV-3 ovarian
ACHN renal = tested on: ACHN renal
M14 melanoma = tested on: M14 melanoma
MCF7 breast = tested on: MCF7 breast
HOP-92 NSCLC = tested on: HOP-92 NSCLC
SK-MEL-5 melanoma = tested on: SK-MEL-5 melanoma
HOP-62 NSCLC = tested on: HOP-62 NSCLC
U251 glioblastoma = tested on: U251 glioblastoma
MDA-MB-468 breast = tested on: MDA-MB-468 breast
UACC-62 melanoma = tested on: UACC-62 melanoma
A498 renal = tested on: A498 renal
SF-268 CNS = tested on: SF-268 CNS
SR leukemia = tested on: SR leukemia
NCI-H522 lung = tested on: NCI-H522 lung
CAKI-1 renal = tested on: CAKI-1 renal
SN12C renal = tested on: SN12C renal
MALME-3M melanoma = tested on: MALME-3M melanoma
OVCAR-4 ovarian = tested on: OVCAR-4 ovarian
MDA-MB-231 breast = tested on: MDA-MB-231 breast
NCI-H460 NSCLC = tested on: NCI-H460 NSCLC
SK-MEL-28 melanoma = tested on: SK-MEL-28 melanoma

## COCC1(CO)C(=O)C2CCN1CC2 (configuration not stated)
NCI-H23 lung
  GI50: 11.8 µM
  TGI: 24.2 µM
PC-3 prostate
  GI50: 19.1 µM
  TGI: 33.3 µM
TK-10 renal
  GI50: 17 µM
  TGI: 30.7 µM
NCI/ADR-RES ovarian
  GI50: 16.2 µM
  TGI: 29.9 µM
KM12 colon
  GI50: 17.9 µM
  TGI: 32 µM
RXF 393 renal
  GI50: 2 µM
  TGI: 3.43 µM
HCC-2998 colon
  GI50: 17.2 µM
  TGI: 31 µM
EKVX NSCLC
  GI50: 16.9 µM
  TGI: 30.6 µM
SF-539 CNS
  GI50: 17.5 µM
  TGI: 31.3 µM
BT-549 breast
  GI50: 11.5 µM
  TGI: 23.7 µM
UACC-257 melanoma
  GI50: 13.9 µM
  TGI: 27 µM
A549 NSCLC
  GI50: 18.2 µM
  TGI: 32.4 µM
SW-620 colon
  GI50: 14.2 µM
  TGI: 27.4 µM
NCI-H226 lung
  GI50: 21.9 µM
  TGI: 36.4 µM
SK-MEL-2 melanoma
  GI50: 2.62 µM
  TGI: 5.41 µM
T-47D breast
  GI50: 1.58 µM
  TGI: 2.94 µM
OVCAR-3 ovarian
  GI50: 14.6 µM
  TGI: 27.9 µM
OVCAR-5 ovarian
  GI50: 16.5 µM
  TGI: 30.2 µM
SNB-75 CNS
  GI50: 1.79 µM
  TGI: 3.73 µM
HT29 colon
  GI50: 19 µM
  TGI: 33.2 µM
HL-60(TB) leukemia
  GI50: 13 µM
  TGI: 25.9 µM
MDA-MB-435 melanoma
  GI50: 16.9 µM
  TGI: 30.7 µM
786-0 renal
  GI50: 15.5 µM
  TGI: 28.9 µM
CCRF-CEM leukemia
  GI50: 1.76 µM
  TGI: 3.33 µM
NCI-H322M lung
  GI50: 19.7 µM
  TGI: 35.2 µM
IGROV1 ovarian
  GI50: 17.2 µM
  TGI: 31.1 µM
SNB-19 CNS
  GI50: 17.5 µM
  TGI: 31.5 µM
SF-295 CNS
  GI50: 17.5 µM
  TGI: 31.6 µM
COLO 205 colon
  GI50: 18.1 µM
  TGI: 32.1 µM
OVCAR-8 ovarian
  GI50: 19.8 µM
  TGI: 34.1 µM
MOLT-4 leukemia
  GI50: 2.27 µM
  TGI: 6.55 µM
DU-145 prostate
  GI50: 17.9 µM
  TGI: 32 µM
HCT-15 colon
  GI50: 4.34 µM
  TGI: 13.9 µM
RPMI-8226 leukemia
  GI50: 10.5 µM
  TGI: 22.3 µM
HS 578T breast
  GI50: 13.1 µM
  TGI: 25.9 µM
SK-OV-3 ovarian
  GI50: 19.3 µM
  TGI: 33.4 µM
ACHN renal
  GI50: 20.3 µM
  TGI: 34.6 µM
M14 melanoma
  GI50: 17.8 µM
  TGI: 31.8 µM
MCF7 breast
  GI50: 3.68 µM
  TGI: 12.4 µM
HOP-92 NSCLC
  GI50: 10.9 µM
  TGI: 22.9 µM
SK-MEL-5 melanoma
  GI50: 15.5 µM
  TGI: 29 µM
HOP-62 NSCLC
  GI50: 1.86 µM
  TGI: 3.49 µM
U251 glioblastoma
  GI50: 18.7 µM
  TGI: 32.8 µM
MDA-MB-468 breast
  GI50: 3.28 µM
  TGI: 7.2 µM
UACC-62 melanoma
  GI50: 18.2 µM
  TGI: 32.2 µM
A498 renal
  GI50: 16.7 µM
  TGI: 30.5 µM
SF-268 CNS
  GI50: 20 µM
  TGI: 34.2 µM
SR leukemia
  GI50: 14.6 µM
  TGI: 27.8 µM
NCI-H522 lung
  GI50: 1.83 µM
  TGI: 3.24 µM
CAKI-1 renal
  GI50: 17.1 µM
  TGI: 30.9 µM
SN12C renal
  GI50: 15.3 µM
  TGI: 28.8 µM
MALME-3M melanoma
  GI50: 17.5 µM
  TGI: 31.3 µM
OVCAR-4 ovarian
  GI50: 2.6 µM
  TGI: 6.3 µM
MDA-MB-231 breast
  GI50: 17.7 µM
  TGI: 31.7 µM
NCI-H460 NSCLC
  GI50: 17.4 µM
  TGI: 31.6 µM
SK-MEL-28 melanoma
  GI50: 20.6 µM
  TGI: 35 µM
